Assay results reported in patent US20190275033A1 (Boehringer Ingelheim International GmbH, priority 2016, published 2019).
Entries after “also recorded” stand apart in the source; their conditions may differ.

What was measured:
[1] = system: IPF patients; settings: cited from earlier work
[2] = system: mouse models of IPF; settings: in vivo; cited from earlier work
[3] = system: lung fibroblasts from patients with IPF; settings: cited from earlier work
[4] = system: human lung fibroblast; assay: Human lung fibroblast contraction; type: cell-based; settings: clinically relevant concentrations
[5] = system: Bleomycin-induced lung fibrosis in rats; assay: Bleomycin-induced lung fibrosis in rats; type: in vivo
[6] = system: primary human lung fibroblasts from IPF patients; settings: cited from earlier work
[7] = system: Bleomycin-induced lung fibrosis in mice; assay: Bleomycin-induced lung fibrosis in mice; type: in vivo
[8] = system: primary human lung fibroblasts from IPF patients; assay: Fibroblast to myofibroblast transformation of human lung fibroblasts; type: cell-based
Description: Nintedanib also attenuated the transformation of lung fibroblasts to myofibroblasts. Fibroblast proliferation, migration and transformation are fundamental processes in the common final path of several diseases resulting in lung fibrosis such as IPF but also SSc-ILD and RA-ILD.

[9] = system: Skin and lung fibrosis in transgenic Fra-2 mice; assay: Skin and lung fibrosis in transgenic Fra-2 mice (genetic model of SSc-ILD); type: in vivo
Description: Data are shown in Huang et al., Ann. Rheum. Dis. […] Clin. Pract. Rheumatol. 2006; 1:134-44.

[10] = system: human lung fibroblasts; settings: cited from earlier work
[11] = system: Silica-induced lung fibrosis in mice; assay: Silica-induced lung fibrosis in mice; type: in vivo
[12] = system: fibroblast growth factor receptors (FGFRs); settings: preclinical studies; cited from earlier work
[13] = target: T1, PDGFR-α (Homo sapiens, UniProt P16234); settings: normal human lung fibroblasts in vitro; cited from earlier work
T1 construct: endogenous in cells; host or cells: normal human lung fibroblasts

[14] = target: T2, PDGFR-β (Homo sapiens, UniProt P09619); settings: normal human lung fibroblasts in vitro; cited from earlier work
T2 construct: endogenous in cells; host or cells: normal human lung fibroblasts

[15] = system: dermal fibroblasts from patients with SSc; assay: Dermal fibroblasts from patients with SSc; type: cell-based, human
[16] = preclinical studies; cited from earlier work
[17] = system: platelet-derived growth factor receptors (PDGFRs); settings: preclinical studies; cited from earlier work
[18] = cited from earlier work
[19] = system: Rheumatoid arthritis and lung fibrosis in SKG mice; assay: Rheumatoid arthritis and lung fibrosis in zymosan-stimulated SKG mice (RA-ILD model)
Description: Whether this inflammation is helpful to resolve the fibrosis or detrimental remains open.
INTRODUCTION: Rheumatoid arthritis preferentially affects women and approximately […] of patients have lung abnormalities and involvement. From this group approximately 20% will develop rheumatoid arthritis-associated interstitial lung disease (RA-ILD).
RATIONALE: SKG mice, genetically prone to develop autoimmune arthritis, also develop a pulmonary interstitial pneumonia that resembles human cellular and fibrotic non-specific interstitial pneumonia.
Inflammation in the lungs was measured by BAL (bronchoalveolar lavage) cellularity and in enzymatically-digested lungs. Arthritis of joints and digits was scored weekly.

[20] = system: patients with IPF; settings: cited from earlier work
[21] = system: collagen-induced arthritis (CIA); assay: Mouse model of collagen-induced arthritis (CIA); type: in vivo; settings: treatment started 13 days after induction, continued for 5 weeks
[22] = system: animal models of SSc and SSc-ILD; assay: Four animal models of SSc and SSc-ILD; type: in vivo
[23] = system: bleomycin-induced skin fibrosis in mice; settings: therapeutic nintedanib treatment; cited from earlier work
[24] = system: animal models of lung fibrosis; assay: Three animal models of lung fibrosis; type: in vivo
[25] = system: vascular endothelial growth factor receptors (VEGFRs); settings: preclinical studies; cited from earlier work
[26] = lung fibroblasts from patients with IPF
[27] = human lung fibroblasts from patients with IPF and control donors
[28] = early treatment, developing lung disease
[29] = early treatment, from week 5 after zymosan
[30] = late treatment, week 16, vs saline
[31] = preventive or therapeutic dosing regimen

T1 sequence (P16234 24-1089): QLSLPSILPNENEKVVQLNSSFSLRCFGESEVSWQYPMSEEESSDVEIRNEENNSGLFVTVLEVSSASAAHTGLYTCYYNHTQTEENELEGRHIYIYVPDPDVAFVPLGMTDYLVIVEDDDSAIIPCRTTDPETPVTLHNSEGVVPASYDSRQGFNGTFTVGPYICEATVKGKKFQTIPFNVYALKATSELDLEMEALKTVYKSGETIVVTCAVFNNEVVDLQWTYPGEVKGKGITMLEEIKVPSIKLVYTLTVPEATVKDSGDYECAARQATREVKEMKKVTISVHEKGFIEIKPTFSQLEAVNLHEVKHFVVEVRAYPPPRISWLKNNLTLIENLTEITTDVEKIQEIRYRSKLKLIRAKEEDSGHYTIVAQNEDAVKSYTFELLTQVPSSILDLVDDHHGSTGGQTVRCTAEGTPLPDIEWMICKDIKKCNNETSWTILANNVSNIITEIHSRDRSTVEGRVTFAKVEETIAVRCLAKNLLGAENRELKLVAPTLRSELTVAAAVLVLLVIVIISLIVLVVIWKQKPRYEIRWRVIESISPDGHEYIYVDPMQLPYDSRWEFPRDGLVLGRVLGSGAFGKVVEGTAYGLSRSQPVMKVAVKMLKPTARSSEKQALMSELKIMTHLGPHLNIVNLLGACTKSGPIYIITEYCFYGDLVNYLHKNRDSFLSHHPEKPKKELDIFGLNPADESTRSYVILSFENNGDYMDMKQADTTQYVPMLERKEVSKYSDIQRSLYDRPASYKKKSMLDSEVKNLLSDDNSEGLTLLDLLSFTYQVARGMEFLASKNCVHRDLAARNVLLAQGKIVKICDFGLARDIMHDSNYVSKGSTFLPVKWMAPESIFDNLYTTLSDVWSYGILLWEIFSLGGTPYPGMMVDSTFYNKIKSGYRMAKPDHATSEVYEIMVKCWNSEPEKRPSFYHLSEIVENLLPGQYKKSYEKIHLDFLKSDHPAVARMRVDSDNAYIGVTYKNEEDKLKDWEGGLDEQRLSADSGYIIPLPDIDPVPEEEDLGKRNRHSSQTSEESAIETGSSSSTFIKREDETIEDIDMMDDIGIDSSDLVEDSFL
T2 sequence (P09619 33-1106): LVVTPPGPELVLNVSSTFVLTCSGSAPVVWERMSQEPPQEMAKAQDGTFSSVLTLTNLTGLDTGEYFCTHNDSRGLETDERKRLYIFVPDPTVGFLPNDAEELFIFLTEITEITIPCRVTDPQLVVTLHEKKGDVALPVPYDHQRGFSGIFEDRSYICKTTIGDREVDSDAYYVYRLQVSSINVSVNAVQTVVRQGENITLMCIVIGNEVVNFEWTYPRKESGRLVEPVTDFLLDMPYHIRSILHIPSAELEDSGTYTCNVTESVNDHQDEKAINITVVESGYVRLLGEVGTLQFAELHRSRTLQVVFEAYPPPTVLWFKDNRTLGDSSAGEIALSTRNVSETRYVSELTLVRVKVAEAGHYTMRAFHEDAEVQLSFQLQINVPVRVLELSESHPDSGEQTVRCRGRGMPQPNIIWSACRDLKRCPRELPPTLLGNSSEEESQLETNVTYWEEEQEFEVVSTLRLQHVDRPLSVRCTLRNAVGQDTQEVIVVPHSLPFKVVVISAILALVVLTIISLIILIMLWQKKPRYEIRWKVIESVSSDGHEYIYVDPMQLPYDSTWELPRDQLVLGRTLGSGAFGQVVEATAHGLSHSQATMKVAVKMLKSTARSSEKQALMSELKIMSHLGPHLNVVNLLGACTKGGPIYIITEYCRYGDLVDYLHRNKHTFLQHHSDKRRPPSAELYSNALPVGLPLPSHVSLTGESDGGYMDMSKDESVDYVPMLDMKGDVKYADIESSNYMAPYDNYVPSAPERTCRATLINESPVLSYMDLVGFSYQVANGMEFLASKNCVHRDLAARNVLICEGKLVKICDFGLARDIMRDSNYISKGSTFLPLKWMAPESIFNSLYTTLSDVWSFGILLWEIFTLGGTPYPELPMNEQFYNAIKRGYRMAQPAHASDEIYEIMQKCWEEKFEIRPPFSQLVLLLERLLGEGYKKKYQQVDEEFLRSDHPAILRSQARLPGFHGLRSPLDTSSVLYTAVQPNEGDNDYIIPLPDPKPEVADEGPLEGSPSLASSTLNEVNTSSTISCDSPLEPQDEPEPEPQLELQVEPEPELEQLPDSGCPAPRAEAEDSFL

For Cc1ccc(=O)n(-c2ccccc2)c1 [pirfenidone, 5-methyl-1-phenyl-2(1H)-Pyridinone], the “primary endpoint of change from baseline FVC % predicted” value ([1]; ASCEND Phase III trial) is listed as “met the primary endpoint”, the “primary FVC lung function endpoint” value ([1]; international Phase III CAPACITY program) is listed as “efficacy on the primary FVC lung function endpoint in only one of two confirmatory trials” and the “decline of vital capacity” value ([1]; two local trials, Japan) is listed as “reduced decline”.
In the case of COC(=O)c1ccc2c(c1)NC(=O)/C2=C(\Nc1ccc(N(C)C(=O)CN2CCN(C)CC2)cc1)c1ccccc1 [nintedanib, 3-Z-[1-(4-(N-((4-methyl-piperazin-1-yl)-methylcarbonyl)-N-methyl-amino)-anilino)-1-phenyl-methylene]-6-methoxycarbonyl-2-indolinone], the “fibrosis in histological analyses” value [2] is listed as “reduced”, the “granuloma formation in histological analysis of lung tissue” value [2] is listed as “reduced” and the “inflammation in histological analysis of lung tissue” value [2] is listed as “reduced”. The inflammatory cytokines [2] was “reductions”, the “lymphocyte counts in the bronchoalveolar lavage fluid” value [2] was “significant reductions” and the “neutrophil counts in the bronchoalveolar lavage fluid” value [2] was “significant reductions”. For the same compound, the total lung collagen [2] was “significant reductions”, the “migration of human lung fibroblasts from patients with IPF” value [3] was “inhibited” and the FGF-2-stimulated migration [3, 26] was “attenuated”. For the same compound, the PDGF-stimulated migration [3, 26] was “attenuated”, the “human lung fibroblast contraction” value [4] was “inhibits” and the “Lung fibrosis (Ashcroft score)” value ([5]; preventive treatment) was “score)↓”. The “Lung fibrosis (Ashcroft score)” value ([5]; therapeutic treatment) was “score)↓”, the “TGF-β-induced fibroblast to myofibroblast transformation” value [6] was “inhibited” and the BALF lymphocytes ([7]; preventive treatment) was “cytes↓”. For the same compound, the IL-1β ([7]; preventive treatment) was “IL-1β↓”, the Lung fibrosis ([7]; preventive treatment) was “fibrosis↓” and the Lung inflammation ([7]; preventive treatment) was “mation↓”. For the same compound, the TIMP-1 ([7]; preventive treatment) was “TIMP-1↓”, the BALF lymphocytes ([7]; therapeutic treatment) was “cytes↓” and the IL-1β ([7]; therapeutic treatment) was “IL-1β↓”. The Lung collgen ([7]; therapeutic treatment) was “collgen↓”, the Lung fibrosis ([7]; therapeutic treatment) was “fibrosis↓” and the Lung inflammation ([7]; therapeutic treatment) was “mation↓”. For the same compound, the TIMP-1 ([7]; therapeutic treatment) was “TIMP-1↓”, the “transformation of lung fibroblasts to myofibroblasts” value [8] was “attenuated” and the Lung fibrosis ([9]; Fra2+/− mice) was “normalises”. The lung vascular remodelling ([9]; Fra2+/− mice) was “normalises”, the skin fibrosis ([9]; Fra2+/− mice) was “normalises” and the Dermal thickness ([9]; therapeutic treatment) was “thickness↓”. The ECM ([9]; therapeutic treatment) was “ECM↓”, the Hydroxiproline ([9]; therapeutic treatment) was “Hydroxiproline↓” and the MVEC apoptosis ([9]; therapeutic treatment) was “apoptosis↑”. For the same compound, the Occluded vessels ([9]; therapeutic treatment) was “vessels↓”, the “Skin and lung myofibroblast count” value ([9]; therapeutic treatment) was “count↓” and the VSMC ([9]; therapeutic treatment) was “VSMC↓”. The Vessel wall thickness ([9]; therapeutic treatment) was “thickness↓”, the “proliferation of human lung fibroblasts from patients with IPF” value [10] was “inhibited” and the FGF-2-induced proliferation [10, 27] was “inhibit”. The VEGF-induced proliferation [10, 27] was “inhibit”, the “proliferation of normal human lung fibroblasts” value ([10]; in vitro) was “inhibit” and the “BALF neutrophils + lymphocytes” value ([11]; preventive treatment) was “cytes↓”. The IL-1β ([11]; preventive treatment) was “IL-1β↓”, the KC ([11]; preventive treatment) was “KC↓” and the Lung collagen ([11]; preventive treatment) was “collagen↓”. The Lung fibrosis ([11]; preventive treatment) was “fibrosis↓”, the Lung inflammation ([11]; preventive treatment) was “mation↓” and the TIMP-1 ([11]; preventive treatment) was “TIMP-1↓”. For the same compound, the “BALF neutrophils + lymphocytes” value ([11]; therapeutic treatment) was “cytes↓”, the IL-1β ([11]; therapeutic treatment) was “IL-1β↓” and the IL-6 ([11]; therapeutic treatment) was “IL-6↓”. For the same compound, the KC ([11]; therapeutic treatment) was “KC↓”, the Lung collagen ([11]; therapeutic treatment) was “collagen↓” and the Lung fibrosis ([11]; therapeutic treatment) was “fibrosis↓”. For the same compound, the Lung inflammation ([11]; therapeutic treatment) was “mation↓”, the TIMP-1 ([11]; therapeutic treatment) was “TIMP-1↓” and the “inhibition of FGFRs” value [12] was “highly potent”. For the same compound, the PDGFR-α activation [13] was “inhibit”, the PDGFR-β activation [14] was “inhibit” and the “expression of extracellular matrix markers” value [15] was “reduced”. The migration [15] was “inhibited”, the proliferation [15] was “inhibited” and the transformation to myofibroblast [15] was “attenuated”. The oral bioavailability [16] was “orally bioavailable”, the “inhibition of PDGFRs” value [17] was “highly potent” and the “elimination via biliary/faecal excretion” value ([18]; human, in vivo) was > 90%. For the same compound, the exposure ([18]; patients with hepatic impairment (Child Pugh A, Child Pugh B)) was “increased”, the “inflammation in the lung” value ([19]; SKG mice treated with zymosan) was “slight but selective inflammation” and the Arthritic score ([19]; early treatment) was “score↓”. For the same compound, the “Lung tissue B220 + B-cells” value ([19]; early treatment) was “B-cells↑”, the “Lung tissue CD103 + Dendritic cells” value ([19]; early treatment) was “cells↑” and the “Lung tissue Monocytes” value ([19]; early treatment) was “Monocytes↓”. The “Lung tissue Neutrophils” value ([19]; early treatment) was “Neutrophils↑”, the static lung compliance ([19]; early treatment) was “ance↑” and the “lymphocytes in the BAL” value [19, 28] was “trend towards increased”. The “neutrophils in the BAL” value [19, 28] was “trend towards increased”, the “total number of alveolar macrophages” value ([19]; early treatment, developing lung disease, vs saline) was “no significant difference” and the “lung collagen deposition (hydroxyproline)” value [19, 29] was “no effect; also recorded: not significantly altered”. The “static lung compliance (lung function)” value [19, 29] was “improved lung function; also recorded: increase in static lung compliance”, the “arthritis score / joint swelling” value ([19]; early treatment, from week 5 after zymosan (week 5-11), 60 mg/kg daily gavage, vs saline, 60 mg/kg) was “attenuated arthritis pathology; also recorded: significant reduction in their development of arthritis; also recorded: significantly reduced; also recorded: reversal of joint swelling” and the “lung collagen (hydroxyproline) / pulmonary fibrosis” value ([19]; late (therapeutic) treatment for six weeks, established arthritis) was “reduction of collagen deposition; also recorded: significant reduction of lung collagen; also recorded: significantly reduces; also recorded: significant decrease”. The “BAL lymphocytes and neutrophils” value ([19]; late treatment) was “neutrophils↑”, the Lung hydroxiproline ([19]; late treatment) was “hydroxiproline↓” and the “Lung tissue inflammatory macrophages” value ([19]; late treatment) was “macrophages↑”. For the same compound, the static lung compliance ([19]; late treatment, established lung disease) was “no significant difference”, the “arthritis score / joint swelling” value ([19]; late treatment, from week 10 after zymosan (week 10-16), established disease, vs saline) was “reduction of the arthritis score if the score was normalized to the last measurement before the start of the nintedanib treatment; also recorded: not altered; also recorded: slightly increased the resolution of joint swelling” and the “alveolar macrophages (BAL)” value ([19]; late treatment, vs saline) was “no significant difference”. The “number of lymphocytes (BAL)” value ([19]; late treatment, vs saline) was “small but significant elevation”, the “number of neutrophils (BAL)” value ([19]; late treatment, vs saline) was “small but significant elevation” and the “total number of BAL cells” value ([19]; late treatment, vs saline) was “no significant difference”. For the same compound, the percent survival [19, 30] was “no significant change”, the weight [19, 30] was “no significant change” and the Arthritic score ([19]; late treatment, if the data is normalised to the last scoring before the nintedanib treatment starts) was “score↓*”. For the same compound, the “B220+ B-cells” value ([19]; lungs, six weeks of nintedanib) was “small but significant increase”, the “CD4+ T-cells” value ([19]; lungs, six weeks of nintedanib) was “small but significant increase” and the macrophage numbers ([19]; lungs, six weeks of nintedanib) was “no changes”. For the same compound, the lung dendritic cells ([19]; nintedanib beginning at week 5) was “significant increase”, the lung neutrophils ([19]; nintedanib beginning at week 5) was “significant increase” and the “increase in lung neutrophils” value ([19]; nintedanib beginning at week 11) was “not at week 11”. For the same compound, the efficacy versus placebo ([20]; INPULSIS and TOMORROW trials, 150 mg twice daily) was “positive results”, the “reduction of the annual rate of decline in FVC (mL/year)” value ([20]; both INPULSIS trials, 150 mg twice daily versus placebo) was “approximately 50%” and the arthritis score [21] was “no attenuating effect”. The “number of vascular smooth muscle cells” value ([22]; an animal model of SSc) was “reducing”, the occluded pulmonary vessels ([22]; an animal model of SSc) was “reducing” and the pulmonary vascular remodelling ([22]; an animal model of SSc) was “effectively attenuated”. For the same compound, the Lung fibrosis ([22]; in vivo) was “effectively attenuated”, the “dermal microvascular endothelial cell apoptosis” value ([22]; in vivo) was “reduced” and the dermal thickening ([22]; in vivo) was “reduced”. For the same compound, the “extracellular matrix deposition in skin and lung” value ([22]; in vivo) was “reduced”, the “myofibroblast accumulation in skin and lung” value ([22]; in vivo) was “attenuated” and the skin fibrosis ([22]; in vivo) was “effectively attenuated”. For the same compound, the bleomycin-induced skin fibrosis [23] was “attenuation”, the “accumulation of lymphocytes in the bronchoalveolar lavage fluid (BALF)” value ([24]; in vivo) was “attenuated” and the “chemokine CXCL1/KC in lung tissue” value ([24]; in vivo) was “reduced”. For the same compound, the “collagen content in lung tissue” value ([24]; in vivo) was “reduced”, the “interleukin (IL)-10 in lung tissue” value ([24]; in vivo) was “reduced” and the “mRNA expression of procollagen 1” value ([24]; in vivo) was “blocked”. The “mRNA expression of transforming growth factor (TGF)-β1” value ([24]; in vivo) was “blocked”, the “tissue inhibitor of metalloproteinases (TIMP)-1 in lung tissue” value ([24]; in vivo) was “reduced” and the “histology score of fibrosis in lung sections” value [24, 31] was “reduced”. For the same compound, the “histology score of granuloma formation in lung sections” value [24, 31] was “reduced”, the “histology score of inflammation in lung sections” value [24, 31] was “reduced” and the “inhibition of VEGFRs” value [25] was “highly potent”.
